These are literature values, as cited in patent publication EP1608381B1, “THERAPEUTIC AND CONSMETIC APPLICATION FOR A COMPOSITION CONTAINING LYCOPENE” (Touche, Marie-José, priority 2002, dated 2003).

For series [1] the following is noted: relative to Bétacarotène.

`CCCCOC(=O)c1ccc(N)cc1` [Butoforme, p-aminobenzoate de n- butyle]: the “solubilité dans le chlorure de méthylène” value (chlorure de méthylène) is on record as “facilement soluble”. Further, for the setting “eau froide”, the “solubilité dans l'eau froide” value is recorded as “pratiquement insoluble”. For the setting “parts of solvent, alcool à 50°”, the “soluble dans p. d'alcool à 50°” value is recorded as 10 p. Moreover, the “soluble dans p. d'huile d'olive” value (parts of solvent, huile d'olive) is recorded as 12,5 p. For the same compound, the “soluble dans p de vaseline” value (parts of solvent, vaseline) was 200 p.
For `C=CCc1ccc(O)c(OC)c1` [EUGENOL, eugénol], the “solubilité dans l'eau” value (eau) was “insoluble”. The “solubilité dans l'éthanol” value (éthanol) was “soluble”.
For the compound `CC(C)=CCC/C(C)=C/C=C/C(C)=C/C=C/C(C)=C/C=C/C=C(C)/C=C/C=C(C)/C=C/C=C(\C)CCC=C(C)C` [lycopène, psi-psi-carotène], the “effet sur les radicaux libres, fois plus que le Bétacarotène” value in series [1] is 2 fois.
